The supplement of paper PMC10627819

Legend:
B. subtilis 168 [1] = assay: Bliss interaction score (quartile over a dose matrix) (fitness difference); higher = more antagonism (negative = synergy)
Outline: (§1)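 Each OD595 reading at entry into stationary phase was scaled to the robust mean of the untreated wells on its plate, with a ceiling of 1. These ratios define fitness, and single-drug fitness was inferred from combinations. The Bliss score compares observed fitness with the product-based expectation and is reported as quartiles across all replicate types, technical, biological and donor/recipient.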

S. aureus DSM 20231 = assay: as above
Outline: as §1

S. aureus Newman [2] = assay: as above
Outline: as §1

S. pneumoniae D39V [3] = assay: as above
Outline: as §1

B. subtilis 168 [4] = assay: fitness (endpoint OD595 vs no drug) (fraction); higher = more growth
Outline: (§2)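 Plates with 384 wells were inoculated at OD595 0.01 using 30 µl of TSB, LB Lennox or CY, or 55 µl for S. pneumoniae. Incubation was at 37 °C, with OD595 measured every 30 min for 14 h. Fitness is the stationary-phase transition optical density over the robust mean of no-drug control wells, after first-reading background subtraction; it is capped at 1.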

S. aureus Newman [5] = assay: as above
Outline: as §2

S. pneumoniae D39V [6] = assay: as above
Outline: as §2
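Wherever Bliss interaction score (quartile over a dose matrix) is given: first quartile when negative (synergy) and third quartile when positive (antagonism).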

O=C(O)c1cn(C2CC2)c2cc(N3CCNCC3)c(F)cc2c1=O [Ciprofloxacin] + CN(N=O)C(=O)N[C@@H](C=O)[C@@H](O)[C@H](O)[C@H](O)CO [Streptozotocin]
Settings	Bliss interaction score
B. subtilis 168 [1]	-0.082
S. aureus DSM 20231	-0.0435
S. aureus Newman [2]	-0.112
S. pneumoniae D39V [3]	-0.0511

Settings	fitness
B. subtilis 168 [4], first compound 0.0098 µg/mL, partner 0.15 µg/mL	0.886
B. subtilis 168 [4], first compound 0.0098 µg/mL, partner 0.3 µg/mL	0.954
B. subtilis 168 [4], first compound 0.0098 µg/mL, partner 0.6 µg/mL	0.887
B. subtilis 168 [4], first compound 0.0195 µg/mL, partner 0.15 µg/mL	0.674
B. subtilis 168 [4], first compound 0.0195 µg/mL, partner 0.3 µg/mL	0.678
B. subtilis 168 [4], first compound 0.0195 µg/mL, partner 0.6 µg/mL	0.666
B. subtilis 168 [4], first compound 0.039 µg/mL, partner 0.15 µg/mL	0.117
B. subtilis 168 [4], first compound 0.039 µg/mL, partner 0.3 µg/mL	0.119
B. subtilis 168 [4], first compound 0.039 µg/mL, partner 0.6 µg/mL	0.13
S. aureus Newman [5], first compound 0.0375 µg/mL, partner 0.15 µg/mL	0.602
S. aureus Newman [5], first compound 0.0375 µg/mL, partner 0.3 µg/mL	0.565
S. aureus Newman [5], first compound 0.0375 µg/mL, partner 0.6 µg/mL	0.398
S. aureus Newman [5], first compound 0.075 µg/mL, partner 0.15 µg/mL	0.448
S. aureus Newman [5], first compound 0.075 µg/mL, partner 0.6 µg/mL	0.194
S. aureus Newman [5], first compound 0.15 µg/mL, partner 0.15 µg/mL	0.0223
S. aureus Newman [5], first compound 0.15 µg/mL, partner 0.3 µg/mL	0.0444
S. aureus Newman [5], first compound 0.15 µg/mL, partner 0.6 µg/mL	0.0059
S. pneumoniae D39V [6], first compound 0.125 µg/mL, partner 1.2 µg/mL	0.929
S. pneumoniae D39V [6], first compound 0.125 µg/mL, partner 2.4 µg/mL	0.926
S. pneumoniae D39V [6], first compound 0.125 µg/mL, partner 4.8 µg/mL	0.95
S. pneumoniae D39V [6], first compound 0.25 µg/mL, partner 1.2 µg/mL	0.839
S. pneumoniae D39V [6], first compound 0.25 µg/mL, partner 4.8 µg/mL	0.797
S. pneumoniae D39V [6], first compound 0.5 µg/mL, partner 4.8 µg/mL	0.567

CO/N=C(\C(=O)N[C@@H]1C(=O)N2C(C(=O)O)=C(COC(C)=O)CS[C@H]12)c1csc(N)n1 [Cefotaxime] + CC1=C(C(=O)O)N2C(=O)[C@@H](NC(=O)[C@H](N)c3ccccc3)[C@H]2SC1 [Cephalexin]
Settings	Bliss interaction score
B. subtilis 168 [1]	0.101
S. aureus DSM 20231	0.0629
S. aureus Newman [2]	0.09
S. pneumoniae D39V [3]	-0.0656

fitness, one replicate
Settings	partner 0.125 µg/mL	partner 0.25 µg/mL	partner 0.5 µg/mL	partner 1 µg/mL
B. subtilis 168 [4], first compound 0.00775 µg/mL	–	0.868	0.903	0.851
B. subtilis 168 [4], first compound 0.0155 µg/mL	–	0.729	0.728	0.748
B. subtilis 168 [4], first compound 0.031 µg/mL	–	0.62	0.631	0.615
S. aureus Newman [5], first compound 0.039 µg/mL	–	0.904	0.952	≥ 1
S. aureus Newman [5], first compound 0.312 µg/mL	–	0.402	0.38	0.371
S. pneumoniae D39V [6], first compound 0.0018 µg/mL	≥ 1	0.959	1	–
S. pneumoniae D39V [6], first compound 0.0035 µg/mL	0.953	0.967	0.977	–
S. pneumoniae D39V [6], first compound 0.007 µg/mL	0.777	0.875	0.724	–

Settings	fitness
B. subtilis 168 [4], first compound 0.5 µg/mL, partner 0.125 µg/mL	0.235
B. subtilis 168 [4], first compound 0.5 µg/mL, partner 0.25 µg/mL	0.221
B. subtilis 168 [4], first compound 0.5 µg/mL, partner 0.5 µg/mL	0.248
B. subtilis 168 [4], first compound 1 µg/mL, partner 0.125 µg/mL	0.152
B. subtilis 168 [4], first compound 1 µg/mL, partner 0.25 µg/mL	0.123
B. subtilis 168 [4], first compound 1 µg/mL, partner 0.5 µg/mL	0.148
B. subtilis 168 [4], first compound 2 µg/mL, partner 0.125 µg/mL	0.124
B. subtilis 168 [4], first compound 2 µg/mL, partner 0.25 µg/mL	0.125
B. subtilis 168 [4], first compound 2 µg/mL, partner 0.5 µg/mL	0.0819
S. aureus Newman [5], first compound 0.078 µg/mL, partner 0.25 µg/mL	0.751
S. aureus Newman [5], first compound 0.078 µg/mL, partner 0.5 µg/mL	0.797
S. aureus Newman [5], first compound 0.078 µg/mL, partner 1 µg/mL	0.817
S. aureus Newman [5], first compound 0.156 µg/mL, partner 0.25 µg/mL	0.636
S. aureus Newman [5], first compound 0.156 µg/mL, partner 0.5 µg/mL	0.631
S. aureus Newman [5], first compound 0.156 µg/mL, partner 1 µg/mL	0.713
S. aureus Newman [5], first compound 0.625 µg/mL, partner 0.5 µg/mL	0.248
S. aureus Newman [5], first compound 1.25 µg/mL, partner 0.25 µg/mL	0.159
S. aureus Newman [5], first compound 1.25 µg/mL, partner 0.5 µg/mL	0.111
S. aureus Newman [5], first compound 1.25 µg/mL, partner 1 µg/mL	0.0956
S. aureus Newman [5], first compound 2.5 µg/mL, partner 0.25 µg/mL	0.0395
S. aureus Newman [5], first compound 2.5 µg/mL, partner 0.5 µg/mL	0.0255
S. aureus Newman [5], first compound 2.5 µg/mL, partner 1 µg/mL	0.0566
S. pneumoniae D39V [6], first compound 0.0018 µg/mL, partner 1 µg/mL	0.815
S. pneumoniae D39V [6], first compound 0.0018 µg/mL, partner 2 µg/mL	0.242
S. pneumoniae D39V [6], first compound 0.0018 µg/mL, partner 4 µg/mL	0.0372
S. pneumoniae D39V [6], first compound 0.0035 µg/mL, partner 1 µg/mL	0.679
S. pneumoniae D39V [6], first compound 0.0035 µg/mL, partner 2 µg/mL	0.168
S. pneumoniae D39V [6], first compound 0.0035 µg/mL, partner 4 µg/mL	0.0436
S. pneumoniae D39V [6], first compound 0.007 µg/mL, partner 2 µg/mL	0.0426
S. pneumoniae D39V [6], first compound 0.007 µg/mL, partner 4 µg/mL	0.0416
